Reference: ChEMBL document CHEMBL1201862, “PubChem BioAssay data set” (2004)
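Results reflect a 48-hour exposure of cells in 96-well plates to compound at five concentrations. GI50: concentration for 50% inhibition of growth.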 Calls of active or inactive are those of the source. No stated cut-off is given here; in the data, active = GI50 up to about 1.1 µM and inactive = higher.

Tests used:
Test in all cases: inhibition of tumour cell growth, NCI panel, 48 h
SK-MEL-2 = tested on: SK-MEL-2
HOP-92 = tested on: HOP-92
HOP-18 = tested on: HOP-18
NCI-H226 = tested on: NCI-H226
DMS-273 = tested on: DMS-273
RXF 393 = tested on: RXF 393
XF498 = tested on: XF498
DMS-114 = tested on: DMS-114
UACC-257 = tested on: UACC-257
M14 = tested on: M14
MDA-MB-435 = tested on: MDA-MB-435
PC-3 = tested on: PC-3
MDA-MB-231 = tested on: MDA-MB-231
NCI-H460 = tested on: NCI-H460
Hs-578T = tested on: Hs-578T
MDA-N = tested on: MDA-N
HT-29 = tested on: HT-29
BT-549 = tested on: BT-549
NCI/ADR-RES = tested on: NCI/ADR-RES
T47D = tested on: T47D

Measured: GI50

O=c1c(C(c2ccc(Cl)cc2)c2c(O)c3ccccc3n(-c3ccccc3)c2=O)c(O)c2ccccc2n1-c1ccccc1
inactive: SK-MEL-2 19.5 µM | HOP-92 16.7 µM | HOP-18 > 100 µM | NCI-H226 73.6 µM | DMS-273 36.9 µM | RXF 393 36.6 µM | XF498 18.8 µM | DMS-114 28.7 µM

N#Cc1c(NC(=S)NC(=O)c2ccccc2)nc2c(c1-c1ccccc1)CCC2
inactive: UACC-257 > 100 µM | M14 > 100 µM | MDA-MB-435 > 100 µM | PC-3 > 100 µM | MDA-MB-231 43.9 µM | NCI-H460 > 100 µM | Hs-578T 39.8 µM | MDA-N > 100 µM | HT-29 > 100 µM | BT-549 > 100 µM | NCI/ADR-RES > 100 µM | T47D 25.5 µM
